Experimental data as given in ChEMBL document CHEMBL4382212, “Tetrazolylpropan-2-ones as inhibitors of fatty acid amide hydrolase: Studies on structure-activity relationships and metabolic stability” (Eur J Med Chem, 2018).

Assay: Partition coefficient, log P of the compound at 5 mM by reversed phase HPLC analysis
Type: physicochemical
Details: octanol/water

| Structure (SMILES) | logP at 5000 µM |
| --- | --- |
| CC(Oc1ccc(-c2ccccc2)cc1)C(=O)Cn1nnc(-c2ccc(C(=O)O)cc2)n1 (centres undefined) | 2.6 |
| CC(Oc1ccc(Oc2ccc(Cl)cc2)cc1)C(=O)Cn1nnc(-c2ccccc2)n1 (centres undefined) | 6 |
| CC(Oc1ccc(-c2ccccc2)cc1)C(=O)Cn1nnc(-c2ccccc2)n1 (centres undefined) | 5.3 |
| CCCCCCCCc1ccc(OCC(=O)Cn2nnc(-c3ccc(C(=O)OC)cc3)n2)cc1 | 8 |
| CCCCCCCCc1ccc(OCC(=O)Cn2nnc(C(=O)O)n2)cc1 | 5.3 |
| CCCCCCCCc1ccc(OCC(=O)Cn2nnc(-c3ccc(Cl)cc3)n2)cc1 | > 8 |
| CCCCCCCCc1ccc(OC(C)C(=O)Cn2nnc(-c3ccccc3)n2)cc1 (centres undefined) | > 8 |
| CC(Oc1ccc(Oc2ccc(C(F)(F)F)cc2)cc1)C(=O)Cn1nnc(-c2ccccc2)n1 (centres undefined) | 6.2 |
| CCCCCCCCc1ccc(OCC(=O)Cn2nnc(-c3ccccc3)n2)cc1 | 8 |
| CCCCCCCCc1ccc(OC(C)C(=O)Cn2nnc(-c3ccc(C(=O)OC)cc3)n2)cc1 (centres undefined) | > 8 |
| CC(Oc1ccc(Oc2ccc(Cl)cc2)cc1)C(=O)Cn1nnc(-c2ccc(Cl)cc2)n1 (centres undefined) | 6.8 |
| CCCCCCCCc1ccc(OC(C)C(=O)Cn2nnc(-c3ccc(Cl)cc3)n2)cc1 (centres undefined) | > 8 |
| CCCCCCCCc1ccc(OC(C)C(=O)Cn2nnc(-c3ccc(C(=O)O)cc3)n2)cc1 (centres undefined) | 5.9 |
| CC(Oc1ccc(-c2ccccc2)cc1)C(=O)Cn1nnc(-c2ccc(Cl)cc2)n1 (centres undefined) | 6.1 |
| CC(Oc1ccc(Oc2ccc(C(F)(F)F)cc2)cc1)C(=O)Cn1nnc(-c2ccc(Cl)cc2)n1 (centres undefined) | 7 |
| COC(=O)c1ccc(-c2nnn(CC(=O)C(C)Oc3ccc(-c4ccccc4)cc3)n2)cc1 (centres undefined) | 5.4 |

Now from value to molecule:

| logP at 5000 µM | Structure (SMILES) |
| --- | --- |
| 6.1 | COC(=O)c1ccc(-c2nnn(CC(=O)C(C)Oc3ccc(Oc4ccc(Cl)cc4)cc3)n2)cc1 (centres undefined) |
| 6.2 | COC(=O)c1ccc(-c2nnn(CC(=O)C(C)Oc3ccc(Oc4ccc(C(F)(F)F)cc4)cc3)n2)cc1 (centres undefined) |
| 5.4 | COC(=O)c1ccc(-c2nnn(CC(=O)C(C)Oc3ccc(Oc4ccc(F)cc4)cc3)n2)cc1 (centres undefined) |
| 5.3 | CC(Oc1ccc(Oc2ccc(F)cc2)cc1)C(=O)Cn1nnc(-c2ccccc2)n1 (centres undefined) |
| 2.7 | CC(Oc1ccc(Oc2ccc(F)cc2)cc1)C(=O)Cn1nnc(-c2ccc(C(=O)O)cc2)n1 (centres undefined) |
| 3.5 | CC(Oc1ccc(Oc2ccc(C(F)(F)F)cc2)cc1)C(=O)Cn1nnc(-c2ccc(C(=O)O)cc2)n1 (centres undefined) |
| 6.2 | CC(Oc1ccc(Oc2ccc(F)cc2)cc1)C(=O)Cn1nnc(-c2ccc(Cl)cc2)n1 (centres undefined) |
| 3.3 | CC(Oc1ccc(Oc2ccc(Cl)cc2)cc1)C(=O)Cn1nnc(-c2ccc(C(=O)O)cc2)n1 (centres undefined) |
